Measurements: PMC9519552, “Activation of the human insulin receptor by non-insulin-related peptides” (Nature Communications, 2022)
Read-outs that look alike come from different tables or passages of the source. Positions of bridges follow the written chain, without caps; N, C: chain ends. Non-standard residues stand in square brackets, D forms with d. Residues, ends and D or L forms follow the SMILES beside them. *: point of attachment. X1 = NCc1ccc(CC(=O)*)cc1; PhAc = O=C(Cc1ccccc1)*; Aib = CC(C)(N)C(=O)O

What was measured:
human IR-A (holoIR-A) = molecular target: T1, human IR-A (holoIR-A) (Homo sapiens, UniProt P06213); test: holoIR-A competitive radioligand binding assay (scintillation proximity assay); details: for Ki: primary peptide set, mean of 3 runs, read-out: IRA Binding Ki Mean; for weaker affinity for hIR-A than BHI: relative to biosynthetic human insulin
T1 construct: expressed in transfected cells; host or cells: HEK293 (ATCC #CRL-1573), stably transfected; membrane preparation
Method in brief: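 Membranes from HEK293 cells stably expressing C9-tagged human IR-A were used in a WGA-bead SPA competition assay in 50 mM Tris-HCl pH 7.5, 150 mM NaCl, 0.1% fatty-acid-free BSA. Ten-point 3-fold dilutions were incubated 10 h at room temperature before scintillation counting. Percent specific inhibition was calculated after nonspecific-binding correction, from three independent runs.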

[1] = molecular target: T2, human holoIR-A over-expressed in HEK293 cells (Homo sapiens, UniProt P06213); test: holoIR-A auto-phosphorylation assay (ELISA); assay type: cell-based
T2 construct: expressed in transfected cells; host or cells: HEK293, stably transfected
Description: Phosphorylation was quantified using an ELISA technique. Ninety-six well, flat-bottom microplates (Greiner Bio-One) were pre-coated with 2 µg mL^−1 anti-C9 monoclonal antibody (Rho 1D4; University of British Columbia)[27] in 20 mM sodium carbonate, pH 9.6, at 4 °C for overnight prior to the assay. On the assay day, plates were washed 3× with 0.1% Tween in 50 mM Tris Buffer Saline, pH 7.5 (TBST), and then blocked for greater than 1 h at room temperature (RT) with 1% BSA (Sigma) in TBST.
Stably transfected HEK293 cells over-expressing human holoIR-A containing a C-terminal C9 epitope tag ([…]), were plated at 6 × 10^4 cells per well serum-starved using 0.1% BSA in DMEM (Gibco) for overnight at standard tissue culture condition. […] After a 15-min incubation in lysis buffer at 4 °C, the lysate was transferred to anti-C9 antibody coated capture plate (Rho 1D4; University of British Columbia)[27]. […] After a 1 h incubation at room temperature, the secondary antibody was removed by washing 3× with TBST. Signal detection occurred with the addition of TMB, an HRP substrate (Pierce). After 5–10 min, the reaction was stopped by adding an equal volume of 2 M H2SO4, and the absorbance readings at 450 nm (A450) were recorded using a Envision plate reader (PerkinElmer). Samples were tested in three independent assay runs on three different days.
Percent specific response (y-axis) was plotted versus the log concentration of compound (x-axis) using Prism Version 9.3.1 (GraphPad Software). Individual measurements are provided as Source Data.

[2] = molecular target: T2, human holoIR-A over-expressed in HEK293 cells; test: Inhibition of hIR phosphorylation by peptides, co-incubated with BHI at its EC50 (ELISA); assay type: cell-based
Method in brief: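 Serum-starved HEK293 cells stably over-expressing C9-tagged human holoIR-A were treated, lysed, and receptor captured on anti-C9-coated plates. Phosphorylation was detected by HRP/TMB ELISA at A450. Percent specific response was plotted against log compound concentration, with three independent runs on different days.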

[3] = tested on: [holoIR-A]-expressing IM-9 human lymphoblast cells; test: holoIR-A accelerated dissociation assay of pre-bound 125I-insulin; assay type: binding; details: IM-9 cells, 1:40 dilution, 16 °C, 30 min; n = 3
Description: Ice-cold 15-25 pM ^125I-insulin solution was added to IM-9 cells and incubated at 4 °C for 2.5 h for pre-bound experiments. […] Following receptor and ^125I-insulin pre-bound, the mix was quickly centrifugated and supernatant was removed. The bound ^125I-insulin and IM-9 cells were then resuspended with 16 °C pre-equilibrated HBB, pH 7.6. The ^125I-ligand/IM-9 cell mixture was aliquoted to cold compounds at 1:40 ratio, respectively. The reactions were incubated at 16 °C for 30 min to allow dissociation of prebound ^125I-insulin and then harvested by centrifugation and aspiration of the supernatant. The radioactivity of cell pellets was determined by gamma counter (Perkin Elmer). Samples were tested in three independent assay runs on three different days. Individual measurements are provided as Source Data.

[4] = Fig. 1b, HEK293 hIR-A cells, 1 h 37 °C, ELISA, errors given as SEM, n = 3 independent replicates, read-out: Auto-phosphorylation constant EC50
[5] = primary peptide set, mean of 3 runs, read-out: hIRA Phosph EC50 Mean

T2 sequence (P06213 28-1370 isoform P06213-2 limits assumed): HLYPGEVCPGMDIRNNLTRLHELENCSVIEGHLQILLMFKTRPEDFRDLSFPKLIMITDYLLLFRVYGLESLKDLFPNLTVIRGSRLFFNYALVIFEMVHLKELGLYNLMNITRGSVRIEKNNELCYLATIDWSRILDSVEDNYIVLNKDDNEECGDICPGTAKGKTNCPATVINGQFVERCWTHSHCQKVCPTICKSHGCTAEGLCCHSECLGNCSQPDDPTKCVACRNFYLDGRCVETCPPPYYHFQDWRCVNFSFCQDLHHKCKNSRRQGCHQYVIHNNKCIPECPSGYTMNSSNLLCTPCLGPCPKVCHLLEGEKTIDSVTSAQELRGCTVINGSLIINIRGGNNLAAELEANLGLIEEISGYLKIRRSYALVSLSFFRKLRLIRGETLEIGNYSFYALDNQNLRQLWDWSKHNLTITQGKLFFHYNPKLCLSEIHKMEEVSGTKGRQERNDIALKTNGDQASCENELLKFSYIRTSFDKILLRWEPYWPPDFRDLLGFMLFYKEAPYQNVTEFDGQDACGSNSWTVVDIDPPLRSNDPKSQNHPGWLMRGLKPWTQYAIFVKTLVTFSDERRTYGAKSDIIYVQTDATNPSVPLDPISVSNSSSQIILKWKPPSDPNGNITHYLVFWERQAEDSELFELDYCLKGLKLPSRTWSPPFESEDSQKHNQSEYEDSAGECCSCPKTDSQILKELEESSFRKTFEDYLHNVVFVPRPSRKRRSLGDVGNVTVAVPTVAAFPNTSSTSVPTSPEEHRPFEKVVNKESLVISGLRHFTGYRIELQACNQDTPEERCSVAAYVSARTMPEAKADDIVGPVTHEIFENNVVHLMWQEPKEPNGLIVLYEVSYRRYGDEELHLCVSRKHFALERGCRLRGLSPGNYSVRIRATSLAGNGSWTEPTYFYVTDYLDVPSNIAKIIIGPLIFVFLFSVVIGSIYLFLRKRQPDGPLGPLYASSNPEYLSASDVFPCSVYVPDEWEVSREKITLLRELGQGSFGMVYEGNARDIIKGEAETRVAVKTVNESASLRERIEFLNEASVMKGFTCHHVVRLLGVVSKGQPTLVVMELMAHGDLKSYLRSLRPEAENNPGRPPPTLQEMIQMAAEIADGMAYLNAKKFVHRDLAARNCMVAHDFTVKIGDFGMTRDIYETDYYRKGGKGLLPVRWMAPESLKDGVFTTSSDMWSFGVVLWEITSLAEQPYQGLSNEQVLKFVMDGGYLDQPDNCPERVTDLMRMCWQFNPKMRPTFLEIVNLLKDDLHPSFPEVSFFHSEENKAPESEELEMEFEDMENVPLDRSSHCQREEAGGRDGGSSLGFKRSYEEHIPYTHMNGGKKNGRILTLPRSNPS
T2 sequence (P06213 763-1382 partner limits assumed): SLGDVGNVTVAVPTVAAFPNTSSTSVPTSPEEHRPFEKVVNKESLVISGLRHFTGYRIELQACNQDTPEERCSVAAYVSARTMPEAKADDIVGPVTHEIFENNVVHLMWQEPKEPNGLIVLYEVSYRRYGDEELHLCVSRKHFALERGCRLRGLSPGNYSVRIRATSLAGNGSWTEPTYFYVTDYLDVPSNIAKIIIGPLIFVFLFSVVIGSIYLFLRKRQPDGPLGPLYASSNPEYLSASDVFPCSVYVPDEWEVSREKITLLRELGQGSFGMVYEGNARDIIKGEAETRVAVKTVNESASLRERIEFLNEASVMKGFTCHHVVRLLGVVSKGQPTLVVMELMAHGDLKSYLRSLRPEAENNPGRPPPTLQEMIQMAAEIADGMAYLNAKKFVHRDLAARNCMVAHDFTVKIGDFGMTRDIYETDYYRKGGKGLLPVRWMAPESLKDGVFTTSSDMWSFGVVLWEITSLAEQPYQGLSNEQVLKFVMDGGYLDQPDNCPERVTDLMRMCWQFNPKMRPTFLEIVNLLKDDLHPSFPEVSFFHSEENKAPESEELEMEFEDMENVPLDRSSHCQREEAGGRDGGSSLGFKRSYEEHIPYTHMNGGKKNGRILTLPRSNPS
T1 sequence (P06213 28-1370 isoform P06213-2 limits assumed): as the sequence (P06213 28-1370 isoform P06213-2 limits assumed) above
T1 sequence (P06213 763-1382 partner limits assumed): as the sequence (P06213 763-1382 partner limits assumed) above

Row | SMILES | Ki (human IR-A (holoIR-A)) | EC50 [1, 4] | EC50 [1, 5] | hIRA Phosph EC50 Run 1 ([1]; primary peptide set) | hIRA Phosph EC50 Run 2 ([1]; primary peptide set) | hIRA Phosph EC50 Run 3 ([1]; primary peptide set) | affinity for hIR (in words) (human IR-A (holoIR-A); comparable to that of BHI) | weaker activity than BHI in an hIR autophosphorylation assay ([1]; relative to biosynthetic human insulin) | weaker affinity for hIR-A than BHI (human IR-A (holoIR-A)) | activity in hIR autophosphorylation assay (in words) [1] | hIRA Phosph IC50 Run 1 ([2]; inhibition of insulin-stimulated phosphorylation, BHI at its EC50, run 1) | hIRA Phosph IC50 Run 2 ([2]; inhibition of insulin-stimulated phosphorylation, BHI at its EC50, run 2) | hIRA Phosph IC50 Run 3 ([2]; inhibition of insulin-stimulated phosphorylation, BHI at its EC50, run 3) | IC50 ([2]; read-out: hIRA Phosph IC50 Mean) | effect on dissociation of pre-bound I125-insulin tracer from native membrane-expressed hIR (in words) [3]
1 | COc1ccc(C[C@H](NC(=O)[C@H](CO)NC(=O)[C@H](CCC(=O)O)NC(=O)[C@H](CO)NC(=O)[C@@H]2CCCN2C(C)=O)C(=O)N[C@@H](Cc2ccc(O)cc2)C(=O)N[C@@H](CCCCN)C(=O)N[C@@H](Cc2c[nH]c3ccccc23)C(=O)N[C@@H](Cc2ccccc2)C(=O)N[C@@H](CCC(=O)O)C(=O)N[C@@H](CCCNC(=N)N)C(=O)N[C@@H](CCC(N)=O)C(=O)N[C@@H](CC(C)C)C(N)=O)cc1 [IM172C13] (Ac-PSESY(Me)YKWFERQL-NH2) | 0.31 µM | > 10 µM | > 10 µM | >10 µM | >10 µM | >10 µM |  |  | ~1000 fold | devoid of detectable activity |  |  |  |  | 
2 | CC[C@H](C)[C@H](NC(=O)[C@H](CCC(N)=O)NC(=O)[C@H](C)NC(=O)[C@H](Cc1c[nH]c2ccccc12)NC(=O)[C@H](CCC(=O)O)NC(=O)[C@H](CCC(=O)O)NC(=O)[C@H](CCC(=O)O)NC(=O)[C@H](CC(C)C)NC(=O)[C@H](CO)NC(=O)Cc1ccccc1)C(=O)N[C@@H](CCC(=O)O)C(=O)N[C@H]1CSSC[C@@H](C(=O)N2CCC[C@H]2C(=O)N2CCC[C@H]2C(=O)N[C@@H](CO)C(=O)N[C@@H](CCC(=O)O)C(=O)N[C@@H](CO)C(N)=O)NC(=O)[C@H](CCCNC(=N)N)NC(=O)CNC(=O)[C@H](Cc2ccc(O)cc2)NC(=O)[C@H](C(C)C)NC(=O)[C@H](CCC(=O)O)NC1=O [IM172N22] (PhAc-SLEEEWAQIECEVYGRCPPSES-NH2; disulfide 11-17) | 0.00308 µM | > 1 µM | > 1 µM | >1 µM | >1 µM | >1 µM |  |  | ~10 fold | devoid of detectable activity | 0.017 µM | 0.017 µM | 0.017 µM | 0.0169 µM | 
3 | COc1ccc(C[C@H](NC(=O)[C@H](C)NC(=O)[C@H](CCCCN)NC(=O)[C@H](CCCCN)NC(=O)[C@@H]2CCCN2C(C)=O)C(=O)N[C@@H](Cc2ccc(O)cc2)C(=O)N[C@@H](CCCCN)C(=O)N[C@@H](Cc2c[nH]c3ccccc23)C(=O)N[C@@H](Cc2ccccc2)C(=O)N[C@@H](CCC(=O)O)C(=O)N[C@@H](CCCNC(=N)N)C(=O)N[C@@H](CCC(N)=O)C(=O)N[C@@H](CC(C)C)C(=O)N[C@@H](CCCCN)C(N)=O)cc1 [IM459C14] (Ac-PKKAY(Me)YKWFERQLK-NH2) | 0.215 µM | > 1 µM | > 1 µM | >1 µM | >1 µM | >1 µM |  |  |  |  |  |  |  |  | no effect
4 | CC[C@H](C)[C@H](NC(=O)[C@H](CCCCN)NC(=O)C(C)(C)NC(=O)[C@H](Cc1c[nH]c2ccccc12)NC(=O)[C@H](CCC(=O)O)NC(=O)[C@H](CCC(N)=O)NC(=O)[C@H](CCC(=O)O)NC(=O)[C@H](CC(C)C)NC(=O)[C@H](CO)NC(=O)Cc1ccc(CN)cc1)C(=O)N[C@@H](CCC(=O)O)C(=O)N[C@H]1CSSC[C@@H](C(=O)N2CCC[C@H]2C(=O)N2CCC[C@H]2C(=O)N[C@@H](CCCCN)C(=O)N[C@@H](CCCCN)C(N)=O)NC(=O)[C@H](CCCCN)NC(=O)CNC(=O)[C@H](Cc2ccc(O)cc2)NC(=O)[C@H](C(C)C)NC(=O)[C@H](CCC(=O)O)NC1=O [IM459N21] (X1-SLEQEW[Aib]KIECEVYGKCPPKK-NH2; disulfide 11-17) | 0.0106 µM | > 1 µM | > 1 µM | >1 µM | >1 µM | >1 µM |  |  |  |  |  |  |  |  | effect of IM459 is fully reproduced

Continued, in another order:

Row | Ki (human IR-A (holoIR-A)) | EC50 [1, 4] | EC50 [1, 5] | hIRA Phosph EC50 Run 1 ([1]; primary peptide set) | hIRA Phosph EC50 Run 2 ([1]; primary peptide set) | hIRA Phosph EC50 Run 3 ([1]; primary peptide set) | affinity for hIR (in words) (human IR-A (holoIR-A); comparable to that of BHI) | weaker activity than BHI in an hIR autophosphorylation assay ([1]; relative to biosynthetic human insulin) | SMILES | weaker affinity for hIR-A than BHI (human IR-A (holoIR-A)) | activity in hIR autophosphorylation assay (in words) [1] | hIRA Phosph IC50 Run 1 ([2]; inhibition of insulin-stimulated phosphorylation, BHI at its EC50, run 1) | hIRA Phosph IC50 Run 2 ([2]; inhibition of insulin-stimulated phosphorylation, BHI at its EC50, run 2) | hIRA Phosph IC50 Run 3 ([2]; inhibition of insulin-stimulated phosphorylation, BHI at its EC50, run 3) | IC50 ([2]; read-out: hIRA Phosph IC50 Mean) | effect on dissociation of pre-bound I125-insulin tracer from native membrane-expressed hIR (in words) [3]
5 | 0.000255 µM |  | 0.00706 µM | 0.006352 µM | 0.008068 µM | 0.006757 µM | sub-nM | ~2.5 fold | CC[C@H](C)[C@H](NC(=O)[C@H](CCC(N)=O)NC(=O)[C@H](C)NC(=O)[C@H](Cc1c[nH]c2ccccc12)NC(=O)[C@H](CCC(=O)O)NC(=O)[C@H](CCC(=O)O)NC(=O)[C@H](CCC(=O)O)NC(=O)[C@H](CC(C)C)NC(=O)[C@H](CO)NC(=O)Cc1ccccc1)C(=O)N[C@@H](CCC(=O)O)C(=O)N[C@H]1CSSC[C@@H](C(=O)N2CCC[C@H]2C(=O)N2CCC[C@H]2C(=O)N[C@@H](CO)C(=O)N[C@@H](CCC(=O)O)C(=O)N[C@@H](CO)C(=O)N[C@@H](Cc2ccc(OC)cc2)C(=O)N[C@@H](Cc2ccc(O)cc2)C(=O)N[C@@H](CCCCN)C(=O)N[C@@H](Cc2c[nH]c3ccccc23)C(=O)N[C@@H](Cc2ccccc2)C(=O)N[C@@H](CCC(=O)O)C(=O)N[C@@H](CCCNC(=N)N)C(=O)N[C@@H](CCC(N)=O)C(=O)N[C@@H](CC(C)C)C(N)=O)NC(=O)[C@H](CCCNC(=N)N)NC(=O)CNC(=O)[C@H](Cc2ccc(O)cc2)NC(=O)[C@H](C(C)C)NC(=O)[C@H](CCC(=O)O)NC1=O [IM172] (PhAc-SLEEEWAQIECEVYGRCPPSESY(Me)YKWFERQL-NH2; disulfide 11-17) |  |  |  |  |  |  | trend similarly, but more weakly
6 | 0.00318 µM |  | 0.00605 µM |  |  |  |  |  | CC(C)C[C@H](NC(=O)[C@H](CCC(N)=O)NC(=O)[C@H](CCCNC(=N)N)NC(=O)[C@H](CCC(=O)O)NC(=O)[C@H](Cc1ccccc1)NC(=O)[C@H](Cc1c[nH]c2ccccc12)NC(=O)[C@H](CC(=O)O)NC(=O)[C@H](Cc1ccc(O)cc1)NC(=O)[C@H](Cc1ccccc1)NC(=O)[C@H](CO)NC(=O)[C@H](CCC(=O)O)NC(=O)[C@H](CC(=O)O)NC(=O)[C@H](CC(C)C)NC(=O)[C@H](CO)NC(=O)CNC(=O)[C@H](CO)NC(=O)[C@@H]1CCCN1C(=O)[C@@H]1CSSC[C@H](NC(=O)[C@H](CCC(=O)O)NC(=O)[C@@H](NC(=O)[C@H](CCC(N)=O)NC(=O)[C@H](C)NC(=O)[C@H](Cc2c[nH]c3ccccc23)NC(=O)[C@H](CCC(=O)O)NC(=O)[C@H](CCC(=O)O)NC(=O)[C@H](CCC(=O)O)NC(=O)[C@H](CC(C)C)NC(=O)[C@@H](N)CO)C(C)C)C(=O)N[C@@H](CCC(=O)O)C(=O)N[C@@H](C(C)C)C(=O)N[C@@H](Cc2ccc(O)cc2)C(=O)NCC(=O)N[C@@H](CCCNC(=N)N)C(=O)NCC(=O)N1)C(=O)NCC(=O)O [Peptide S519, reference compound] (H-SLEEEWAQVECEVYGRGCPSGSLDESFYDWFERQLG-OH; disulfide 11-18) |  |  |  |  |  |  | 
